# In EPA's ToxValDB 9.5 (doi:10.2903/j.efsa.2009.222r):
# Assays:
# [1] = system: Lepomis macrochirus; details: acute; duration: 96 hours; mortality
# [2] = system: Apis mellifera; details: acute; duration: 48 hours; dermal; mortality
# [3] = system: Rattus norvegicus
# [4] = system: Pimephales promelas; details: chronic/long-term
# [5] = system: Avena sativa; details: acute; duration: 21 days; other
# [6] = system: Colinus virginianus
# [7] = system: Daphnia magna; details: chronic/long-term; duration: 21 days
# [8] = system: Tagia sp.; details: acute; duration: 14 days; mortality
# [9] = system: Aphidius rhopalosiphi; assay: LR50; higher = less toxic; details: acute; duration: 48 hours; mortality
compound,measurement,setting,value
CNC(=O)ON=C(C)SC [Methomyl],LC50,[1],0.63 µg/mL
same,LD50,[2],0.16 µg/piece
same,NOAEL,"[3]; acute, clinical chemistry",0.25 mg/kg-day
same,LD50,"[3]; acute, oral, mortality",27.4 mg/kg-day
same,NOAEL,"[3]; reproduction developmental, body weight",4.6 mg/kg-day
same,NOEC,[4],0.073 mg/L
same,LEL,[5],2250 g/ha
same,LC50,"[6]; acute, oral, diet, mortality",> 519 mg/kg-day
same,LD50,"[6]; acute, oral, mortality",24.2 mg/kg-day
same,NOEC,[6]; reproduction developmental,20.3 mg/kg-day
same,NOEC,[7],0.0016 mg/L
same,LC50,[8],19 mg/kg
same,LR50,[9],0.25 g/ha
